Legend:
[1] = molecular target: GDP-bound HRAS wild-type protein (Homo sapiens, UniProt P01112); experiment: Binding to HRAS by surface plasmon resonance (SPR), Single Cycle Kinetics; details: SPR KD ratio HRAS/KRAS, class symbols
[2] = molecular target: GDP-bound NRAS wild-type protein (Homo sapiens, UniProt P01111); experiment: Binding to NRAS by surface plasmon resonance (SPR), Single Cycle Kinetics; details: SPR KD ratio NRAS/KRAS, class symbols
Sequence of GDP-bound NRAS wild-type protein (P01111 whole entry): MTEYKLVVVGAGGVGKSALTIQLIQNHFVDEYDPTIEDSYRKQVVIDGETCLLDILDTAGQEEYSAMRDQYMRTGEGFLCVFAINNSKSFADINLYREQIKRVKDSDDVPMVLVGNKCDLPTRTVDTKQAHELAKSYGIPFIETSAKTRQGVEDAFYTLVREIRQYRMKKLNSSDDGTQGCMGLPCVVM

Sequence of GDP-bound HRAS wild-type protein (P01112 whole entry): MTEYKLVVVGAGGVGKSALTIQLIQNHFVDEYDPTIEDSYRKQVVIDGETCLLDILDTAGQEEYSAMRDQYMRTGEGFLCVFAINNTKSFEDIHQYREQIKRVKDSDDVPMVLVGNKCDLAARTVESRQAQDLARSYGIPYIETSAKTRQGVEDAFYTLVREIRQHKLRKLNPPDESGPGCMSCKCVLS

| Compound | HRAS/KRAS (ratio of KD value with respect to GDP-bound HRAS wild-type protein to KD value with respect to KRAS) [1] | NRAS/KRAS (ratio of KD value with respect to GDP-bound NRAS wild-type protein to KD value with respect to KRAS) [2] |
| --- | --- | --- |
| CCOC[C@H]1C(=O)N[C@@H]([C@@H](C)CC)C(=O)N(C)CC(=O)N(C)[C@H]2C/C=C\CCN(C2=O)[C@@H](Cc2ccc(OC)cc2)C(=O)N(C)CC(=O)N[C@@H](CCc2ccc(C(F)(F)F)c(OC)c2)C(=O)N2C[C@@H](C)C[C@H]2C(=O)NC2(CC(C)(C)C2)C(=O)N(C)[C@@H](C2CCCC2)C(=O)N(C)[C@H](C(=O)N(C)CC)CC(=O)N1C [PP2702] | B (a compound having 3 or more and less than 10 is denoted as B) | A (a compound having 10 or more and less than 20 is denoted as A) |
| CCOC[C@H]1C(=O)N[C@@H]([C@@H](C)CC)C(=O)N(C)CC(=O)N(C)[C@H]2C/C=C\CCN(C2=O)[C@@H](Cc2ccc(C(C)=O)cc2)C(=O)N(C)CC(=O)N[C@@H](CCc2ccc(C(F)(F)F)c(OC)c2)C(=O)N2C[C@@H](C)C[C@H]2C(=O)NC2(CC(C)(C)C2)C(=O)N(C)[C@@H](C2CCCC2)C(=O)N(C)[C@H](C(=O)N(C)CC)CC(=O)N1C [PP2703] | A (a compound having 10 or more and less than 20 is denoted as A) | AA (a compound having 20 or more is denoted as AA) |
| CCOC[C@H]1C(=O)N[C@@H]([C@@H](C)CC)C(=O)N(C)CC(=O)N(C)[C@H]2C/C=C\CCN(C2=O)[C@@H](Cc2ccc3c(c2)CCC3(F)F)C(=O)N(C)CC(=O)N[C@@H](CCc2ccc(C(F)(F)F)c(OC)c2)C(=O)N2C[C@@H](C)C[C@H]2C(=O)NC2(CC(C)(C)C2)C(=O)N(C)[C@@H](C2CCCC2)C(=O)N(C)[C@H](C(=O)N(C)CC)CC(=O)N1C [PP2704] | B (a compound having 3 or more and less than 10 is denoted as B) | B (a compound having 3 or more and less than 10 is denoted as B) |
| CCC[C@H]1C(=O)N[C@@H]([C@@H](C)CC)C(=O)N(C2CC2)CC(=O)N(C)[C@H]2C/C=C\CCN(C2=O)[C@@H](Cc2ccc(C(F)(F)F)cc2)C(=O)N(C)CC(=O)N[C@@H](CCc2cc(F)c(C(F)(F)F)c(F)c2)C(=O)N2C[C@H](OCC)C[C@H]2C(=O)NC2(CC(C)(C)C2)C(=O)N(C)[C@@H](CC(C)(C)C)C(=O)N(C)[C@H](C(=O)N(C)C)CC(=O)N1C [PP2742] | A (a compound having 10 or more and less than 20 is denoted as A) | AA (a compound having 20 or more is denoted as AA) |
| CCO[C@@H]1C[C@H]2C(=O)NC3(CC(C)(C)C3)C(=O)N(C)[C@@H](CC(C)(C)C)C(=O)N(C)[C@H](C(=O)N(C)C)CC(=O)N(C)[C@@H](COC)C(=O)N[C@@H]([C@@H](C)CC)C(=O)N(C3CC3)CC(=O)N(C)[C@H]3C/C=C\CCN(C3=O)[C@@H](Cc3ccc(C(F)(F)F)cc3)C(=O)N(C)CC(=O)N[C@@H](CCc3ccc(Cl)c(Cl)c3)C(=O)N2C1 [PP2750] | A (a compound having 10 or more and less than 20 is denoted as A) | AA (a compound having 20 or more is denoted as AA) |
| CCC[C@H]1C(=O)N[C@@H]([C@@H](C)CC)C(=O)N(C)CC(=O)N(C)[C@H]2C/C=C\CCN(C2=O)[C@@H](Cc2ccc(C)cc2)C(=O)N(C)CC(=O)N[C@@H](CCc2ccc(CC)c(Cl)c2)C(=O)N2C[C@H](OCC)C[C@H]2C(=O)NC2(CC(C)(C)C2)C(=O)N(C)[C@@H](C(CC)CC)C(=O)N(C)[C@H](C(=O)N(C)C)CC(=O)N1C [PP2779] | A (a compound having 10 or more and less than 20 is denoted as A) | A (a compound having 10 or more and less than 20 is denoted as A) |
| CCC[C@H]1C(=O)N[C@@H]([C@@H](C)CC)C(=O)N(C)CC(=O)N(C)[C@H]2C/C=C\CCN(C2=O)[C@@H](Cc2ccc(C)cc2)C(=O)N(C)CC(=O)N[C@@H](CCc2cc(F)c(C(F)(F)F)c(F)c2)C(=O)N2C[C@H](OCC)C[C@H]2C(=O)NC2(CC(C)(C)C2)C(=O)N(C)[C@@H](CC2CC2)C(=O)N(C)[C@H](C(=O)N(C)C)CC(=O)N1C [PP2797] | A (a compound having 10 or more and less than 20 is denoted as A) | A (a compound having 10 or more and less than 20 is denoted as A) |
| CCC[C@H]1C(=O)N[C@@H]([C@@H](C)CC)C(=O)N(C)CC(=O)N(C)[C@H]2C/C=C\CCN(C2=O)[C@@H](Cc2ccc(C)cc2)C(=O)N(C)CC(=O)N[C@@H](CCc2ccc(Cl)c(Cl)c2)C(=O)N2C[C@H](OCC)C[C@H]2C(=O)NC2(CC(C)(C)C2)C(=O)N(C)[C@@H](CC2CC2)C(=O)N(C)[C@H](C(=O)N(C)C)CC(=O)N1C [PP2799] | A (a compound having 10 or more and less than 20 is denoted as A) | A (a compound having 10 or more and less than 20 is denoted as A) |
| CC[C@H](C)[C@@H]1NC(=O)[C@H](CC2CC2)N(C)C(=O)C[C@@H](C(=O)N(C)CC)N(C)C(=O)[C@H](C2CCCC2)N(C)C(=O)C2(CC(C)(C)C2)NC(=O)[C@@H]2C[C@@H](F)CN2C(=O)[C@H](CCc2cc(F)c(C(F)(F)F)c(F)c2)NC(=O)CN(C)C(=O)[C@H](Cc2ccc(C)cc2)N2CC/C=C\C[C@@H](C2=O)N(C)C(=O)CN(C)C1=O [PP2802] | A (a compound having 10 or more and less than 20 is denoted as A) | AA (a compound having 20 or more is denoted as AA) |
| CCC[C@H]1C(=O)N[C@@H]([C@@H](C)CC)C(=O)N(C2CC2)CC(=O)N(C)[C@H]2C/C=C\CCN(C2=O)[C@@H](Cc2ccc(C)cc2)C(=O)N(C)CC(=O)N[C@@H](CCc2ccc(Cl)c(Cl)c2)C(=O)N2C[C@H](OCC)C[C@H]2C(=O)NC2(CC(C)(C)C2)C(=O)N(C)[C@@H](CC2CC2)C(=O)N(C)[C@H](C(=O)N(C)C)CC(=O)N1C [PP2805] | A (a compound having 10 or more and less than 20 is denoted as A) | A (a compound having 10 or more and less than 20 is denoted as A) |
| CCO[C@@H]1C[C@H]2C(=O)N(C)C3(CC(C)(C)C3)C(=O)N(C)[C@@H](C(CC)CC)C(=O)N(C)[C@H](C(=O)N(C)C)CC(=O)N(C)[C@@H](COC)C(=O)N[C@@H]([C@@H](C)CC)C(=O)N(C)CC(=O)N(C)[C@H]3C/C=C\CCN(C3=O)[C@@H](Cc3ccc(C)cc3)C(=O)N(C)CC(=O)N[C@@H](CCc3ccc(Cl)c(Cl)c3)C(=O)N2C1 [PP2810] | A (a compound having 10 or more and less than 20 is denoted as A) | AA (a compound having 20 or more is denoted as AA) |
| CCCO[C@@H]1C[C@H]2C(=O)N(C)C3(CC(C)(C)C3)C(=O)N(C)[C@@H](C(CC)CC)C(=O)N(C)[C@H](C(=O)N(C)C)CC(=O)N(C)[C@@H](COC)C(=O)N[C@@H]([C@@H](C)CC)C(=O)N(C)CC(=O)N(C)[C@H]3C/C=C\CCN(C3=O)[C@@H](Cc3ccc(C)cc3)C(=O)N(C)CC(=O)N[C@@H](CCc3ccc(Cl)c(Cl)c3)C(=O)N2C1 [PP2812] | A (a compound having 10 or more and less than 20 is denoted as A) | AA (a compound having 20 or more is denoted as AA) |
| CCC(CC)[C@H]1C(=O)N(C)[C@H](C(=O)N(C)C)CC(=O)N(C)[C@@H](COC)C(=O)N[C@@H]([C@@H](C)CC)C(=O)N(C)CC(=O)N(C)[C@H]2C/C=C\CCN(C2=O)[C@@H](Cc2ccc(C)cc2)C(=O)N(C)CC(=O)N[C@@H](CCc2ccc(Cl)c(Cl)c2)C(=O)N2C[C@H](OC(C)C)C[C@H]2C(=O)N(C)C2(CC(C)(C)C2)C(=O)N1C [PP2814] | A (a compound having 10 or more and less than 20 is denoted as A) | AA (a compound having 20 or more is denoted as AA) |
| CCO[C@@H]1C[C@H]2C(=O)NC3(CCC3)C(=O)N(C)[C@@H](C3CCCC3)C(=O)N(C)[C@H](C(=O)N(C)CC)CC(=O)N(C)[C@@H](CC3CCC3)C(=O)N[C@@H]([C@@H](C)CC)C(=O)N(C)CC(=O)N(C)[C@H]3C/C=C\CCN(C3=O)[C@@H](Cc3ccc(C(F)(F)F)cc3)C(=O)N(C)CC(=O)N[C@@H](CCc3ccc(Cl)c(Cl)c3)C(=O)N2C1 [PP2824] | A (a compound having 10 or more and less than 20 is denoted as A) | A (a compound having 10 or more and less than 20 is denoted as A) |
| CCCOC[C@H]1C(=O)N[C@@H]([C@@H](C)CC)C(=O)N(C)CC(=O)N(C)[C@H]2C/C=C\CCN(C2=O)[C@@H](Cc2ccc(C(F)(F)F)cc2)C(=O)N(C)CC(=O)N[C@@H](CCc2ccc(Cl)c(Cl)c2)C(=O)N2C[C@H](OCC)C[C@H]2C(=O)NC2(CCC2)C(=O)N(C)[C@@H](C2CCCC2)C(=O)N(C)[C@H](C(=O)N(C)CCC)CC(=O)N1C [PP2830] | A (a compound having 10 or more and less than 20 is denoted as A) | A (a compound having 10 or more and less than 20 is denoted as A) |

From patent publication US20240158446A1, “CYCLIC COMPOUND HAVING SELECTIVE INHIBITORY ACTION ON KRAS OVER HRAS AND NRAS” (CHUGAI SEIYAKU KABUSHIKI KAISHA, priority 2021, published 2024)
